System: 439559-082-T-J2-PDC spheroids viability
Test: Anticancer human tumor 439559-082-T-J2-PDC patient-derived colon adenocarcinoma cell line growth inhibition [GQUAD]
Conditions: for IC50: curve of first compound; for viability, T/C: stronger effect = lower value
Description: DNA G-quadruplex Stabilizer Agents in Combinations in Complex Spheroids
A high-throughput screen of multi-cell type tumor spheroids was designed to identify active combinations of DNA G-quadruplex stabilizer agents and targeted small molecules. Complex spheroids include a stromal component modeled by human endothelial cells (HUVEC) and fibroblasts modeled by human mesenchymal stem cells (MSCs). The concentration ranges selected for each drug and investigational agent were based upon clinically achievable concentrations if the clinical Cmax of the agent was known.
Compounds. The drugs and investigational agents: pidnarulex (CX-5461; NSC782164), APTO-253 (NSC789042), BRACO-19 (NSC847499), peposertib (NSC802822), ceralasertib (NSC780249), elimusertib (NSC800525), camonsertib (NSC841442), AZD-1390 (NSC803789), olaparib (NSC753686), talazoparib (NSC767125), ART-558 (NSC835418), sotorasib (NSC818433), MRTX-1133 (NSC836407), SN-38 (NSC673596), topotecan (NSC609699), etoposide (NSC141540), doxorubicin (NSC123127), gemcitabine (NSC613327), 5-fluorouracil (NSC19893), paclitaxel (NSC125973), vemurafenib (NSC761431), panobinostat (NSC761190), R-306465 (JNJ-16241199; NSC773264), adavosertib (NSC754352), TP-3654 (NSC805149), carboplatin (NSC241240), KSQ-4279 (NSC840948), and staurosporine (NSC755774) were obtained from the National Cancer Institute (NCI) Developmental Therapeutics Program Chemical Repository (34). The FDA-approved anticancer drug set is available from the NCI Developmental Therapeutics Program. […] The stock solutions were prepared in dimethyl sulfoxide (DMSO, Sigma-Aldrich, St. Louis, MO, cat. D2650) at 800-fold the tested concentration and stored at -70 degrees C prior to their use. All drugs and investigational agents were tested over a range starting from a high concentration at or near the clinical Cmax and decreasing in half-log increments. If the clinical Cmax for an agent had not been determined, the highest concentration tested was 10 microM.
2.3 Cell Culture. All cells were maintained in an incubator at 37 degrees C and 5% CO2 with 95% humidity. The PDC lines were cultured according to standard operating procedures established by the NCI PDMR. All PDCs were thawed and cultured in Matrigel-coated flasks prepared with a working solution of 1X Ham's F-12 nutrient mix, without supplementation (Invitrogen, cat. 11765054), 100 U/mL penicillin-streptomycin (Invitrogen, cat. 15140122), and 2.5% Matrigel (Corning Inc., cat. 354248) for the first three passages. The 857933-349-R-J2-PDC line was cultured in 6C/Colon 1B media, which includes advanced DMEM/F-12 (Thermo Fisher Scientific, cat. 12634028), 10 mM HEPES (Thermo Fisher Scientific, cat. 15630080), 1X GlutaMAX supplement (Thermo Fisher Scientific, cat. 35050061), 0.1 mg/mL primocin (InvivoGen, cat. ant-pm-2), 10% defined fetal bovine serum, heat inactivated (HyClone Laboratories Inc., cat. SH30070.03HI), 50% L-WRN conditioned media (ATCC, cat. CRL-3276), 1.25 mM N-Acetyl-L-cysteine (Sigma-Aldrich, cat. A9165), 10 mM nicotinamide (Sigma-Aldrich, cat. N0636), 1X B-27 supplement (Thermo Fisher Scientific, cat. 17504044), 1X N-2 supplement (Thermo Fisher Scientific, cat. 17502048), 10 microM Y-27632 dihydrochloride (Tocris Bioscience, cat. 1254), and 50 ng/mL human EGF recombinant protein (Thermo Fisher Scientific, cat. PHG0311). The 485176-168-R4-J1-PDC line was cultured in Panc media, which includes all 6C/Colon 1B media components plus 100 ng/mL human FGF-10 (Thermo Fisher Scientific, cat. 100-26), 500 nM SB-431542 (Selleckchem, cat. S1067), and gastrin (Tocris, cat. 3006).
[…]
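Also: spheroids exposed to the agents for 7 days before readout.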
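For viability, T/C in this document: percent of luminescence signal in DMSO vehicle wells taken as 100% viability.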

CC1COCCN1c1cc(C2(S(C)(=N)=O)CC2)nc(-c2ccnc3[nH]ccc23)n1 (configuration not stated) + Cc1[nH]c2ccc(F)cc2c1-c1nc2c3cccnc3c3ncccc3c2[nH]1
IC50 (second compound 0.0316 µM): > 10 µM
IC50 (second compound 0.1 µM): > 10 µM
IC50 (second compound 0.316 µM): > 10 µM
IC50 (second compound 1 µM): > 10 µM
IC50 (second compound 3.16 µM): > 10 µM
IC50 (second compound 10 µM): > 10 µM
viability, T/C (second compound 0.0316 µM, first compound 0.0316 µM): 100%
viability, T/C (second compound 0.0316 µM, first compound 0.1 µM): 92.5%
viability, T/C (second compound 0.0316 µM, first compound 0.316 µM): 103%
viability, T/C (second compound 0.0316 µM, first compound 1 µM): 106%
viability, T/C (second compound 0.0316 µM, first compound 3.16 µM): 96.7%
viability, T/C (second compound 0.0316 µM, first compound 10 µM): 76.8%
viability, T/C (second compound 0.1 µM, first compound 0.0316 µM): 109%
viability, T/C (second compound 0.1 µM, first compound 0.1 µM): 104%
viability, T/C (second compound 0.1 µM, first compound 0.316 µM): 90.9%
viability, T/C (second compound 0.1 µM, first compound 1 µM): 102%
viability, T/C (second compound 0.1 µM, first compound 3.16 µM): 93.9%
viability, T/C (second compound 0.1 µM, first compound 10 µM): 75.8%
viability, T/C (second compound 0.316 µM, first compound 0.0316 µM): 88.1%
viability, T/C (second compound 0.316 µM, first compound 0.1 µM): 105%
viability, T/C (second compound 0.316 µM, first compound 0.316 µM): 99.6%
viability, T/C (second compound 0.316 µM, first compound 1 µM): 104%
viability, T/C (second compound 0.316 µM, first compound 3.16 µM): 98.5%
viability, T/C (second compound 0.316 µM, first compound 10 µM): 71.3%
viability, T/C (second compound 1 µM, first compound 0.0316 µM): 99.9%
viability, T/C (second compound 1 µM, first compound 0.1 µM): 86.8%
viability, T/C (second compound 1 µM, first compound 0.316 µM): 100%
viability, T/C (second compound 1 µM, first compound 1 µM): 90.5%
viability, T/C (second compound 1 µM, first compound 3.16 µM): 91.8%
viability, T/C (second compound 1 µM, first compound 10 µM): 68.5%
viability, T/C (second compound 3.16 µM, first compound 0.0316 µM): 87.5%
viability, T/C (second compound 3.16 µM, first compound 0.1 µM): 94.2%
viability, T/C (second compound 3.16 µM, first compound 0.316 µM): 80.8%
viability, T/C (second compound 3.16 µM, first compound 1 µM): 77.4%
viability, T/C (second compound 3.16 µM, first compound 3.16 µM): 83.5%
viability, T/C (second compound 3.16 µM, first compound 10 µM): 63.1%
viability, T/C (second compound 10 µM, first compound 0.0316 µM): 88%
viability, T/C (second compound 10 µM, first compound 0.1 µM): 87.8%
viability, T/C (second compound 10 µM, first compound 0.316 µM): 80.8%
viability, T/C (second compound 10 µM, first compound 1 µM): 74.4%
viability, T/C (second compound 10 µM, first compound 3.16 µM): 80.6%
viability, T/C (second compound 10 µM, first compound 10 µM): 64.3%
